Laboratory results as given in ChEMBL document CHEMBL4190377, “Design of Aminopeptidase N Inhibitors as Anti-cancer Agents” (J Med Chem, 2018).
Values after ≈ are worked out from the molar mass of the structure shown. Blank lines part the entries; values can stand above or below the compound they belong to.

Columns and labels:
Aminopeptidase N [1] = biological target: T1, Aminopeptidase N (Sus scrofa, UniProt P15145); assay: Inhibition of pig APN
T1 sequence (P15145 whole entry): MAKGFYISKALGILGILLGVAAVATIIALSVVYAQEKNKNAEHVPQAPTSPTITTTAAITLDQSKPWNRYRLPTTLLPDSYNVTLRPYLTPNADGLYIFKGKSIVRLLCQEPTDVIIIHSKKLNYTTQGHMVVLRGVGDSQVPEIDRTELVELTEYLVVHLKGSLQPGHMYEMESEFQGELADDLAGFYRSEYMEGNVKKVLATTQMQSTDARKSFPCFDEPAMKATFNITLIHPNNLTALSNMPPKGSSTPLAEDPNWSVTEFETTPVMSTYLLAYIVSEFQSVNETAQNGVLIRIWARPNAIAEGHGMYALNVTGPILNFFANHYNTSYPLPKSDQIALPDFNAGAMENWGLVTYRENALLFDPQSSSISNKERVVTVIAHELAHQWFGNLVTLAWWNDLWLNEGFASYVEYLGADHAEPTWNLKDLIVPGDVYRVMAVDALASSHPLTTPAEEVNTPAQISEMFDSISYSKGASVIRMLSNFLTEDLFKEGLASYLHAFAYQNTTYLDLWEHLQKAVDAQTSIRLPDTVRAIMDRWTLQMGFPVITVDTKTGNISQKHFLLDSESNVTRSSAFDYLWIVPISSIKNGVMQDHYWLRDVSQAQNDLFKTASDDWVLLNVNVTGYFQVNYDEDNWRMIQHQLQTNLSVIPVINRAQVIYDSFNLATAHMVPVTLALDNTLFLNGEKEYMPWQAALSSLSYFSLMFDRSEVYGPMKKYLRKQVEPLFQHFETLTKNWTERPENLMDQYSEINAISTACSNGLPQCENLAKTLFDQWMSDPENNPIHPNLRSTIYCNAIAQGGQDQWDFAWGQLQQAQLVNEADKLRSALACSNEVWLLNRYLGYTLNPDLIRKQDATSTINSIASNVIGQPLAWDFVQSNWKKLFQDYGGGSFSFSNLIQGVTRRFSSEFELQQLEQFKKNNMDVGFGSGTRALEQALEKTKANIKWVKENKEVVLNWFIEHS

Aminopeptidase N [2] = biological target: T2, Aminopeptidase N (Homo sapiens, UniProt P15144); assay: Competitive inhibition of aminopeptidase-M (unknown origin)
Aminopeptidase N [3] = biological target: T1, Aminopeptidase N; assay: Inhibition of APN in porcine kidney using Ala-p-NA as substrate
Glutamyl aminopeptidase [4] = biological target: T3, Glutamyl aminopeptidase (Homo sapiens, UniProt Q07075); assay: Inhibition of APA (unknown origin) using GluNA as substrate
Aminopeptidase N [5] = biological target: T2, Aminopeptidase N
Description: Inhibition of APN (unknown origin)

Glutamyl aminopeptidase [6] = biological target: T3, Glutamyl aminopeptidase; assay: Inhibition of APA (unknown origin) using GlubetaNA as substrate after 30 mins
Mus musculus = assay: Increase in plasma vasopressin release in mouse at 100 ug administered as single dose by RIA; assay type: functional
Aminopeptidase B = biological target: T4, Aminopeptidase B (Rattus norvegicus, UniProt O09175); assay: Inhibition of APB in rat testis using ArgbetaNA as substrate
T4 sequence (O09175 whole entry): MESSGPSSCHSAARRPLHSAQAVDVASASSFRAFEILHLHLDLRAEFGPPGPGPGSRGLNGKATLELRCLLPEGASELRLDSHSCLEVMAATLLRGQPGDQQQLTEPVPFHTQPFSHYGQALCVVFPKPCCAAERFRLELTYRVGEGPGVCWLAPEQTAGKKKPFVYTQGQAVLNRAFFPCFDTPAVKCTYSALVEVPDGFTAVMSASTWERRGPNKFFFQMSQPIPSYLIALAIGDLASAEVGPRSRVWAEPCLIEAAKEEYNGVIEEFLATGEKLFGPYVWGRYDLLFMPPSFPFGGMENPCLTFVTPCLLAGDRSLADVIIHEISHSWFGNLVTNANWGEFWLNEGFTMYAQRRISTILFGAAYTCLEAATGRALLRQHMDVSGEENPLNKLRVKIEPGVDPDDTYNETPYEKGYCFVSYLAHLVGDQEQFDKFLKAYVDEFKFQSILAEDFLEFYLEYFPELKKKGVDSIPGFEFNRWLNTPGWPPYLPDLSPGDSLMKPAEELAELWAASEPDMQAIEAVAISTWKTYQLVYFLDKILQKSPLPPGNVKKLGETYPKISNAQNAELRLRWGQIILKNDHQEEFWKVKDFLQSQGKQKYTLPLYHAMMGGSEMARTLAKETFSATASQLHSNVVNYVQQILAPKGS

Aminopeptidase N [7] = biological target: T1, Aminopeptidase N; assay: Inhibition of APN in porcine kidney microsomes using L-leucine-p-nitroanilide as substrate preincubated for 30 mins followed by substrate addition measured after 15 mins by UV-visible spectrophotometric method
[8] = biological target: T5, Leukotriene A-4 hydrolase (Homo sapiens, UniProt P09960); assay: Inhibition of full-length recombinant C-terminal FLAG-tagged human leukotriene A4 hydrolase expressed in baculovirus-infected insect cells using Arg-AMC as substrate after 1 hr by fluorescence assay
T5 sequence (P09960 whole entry): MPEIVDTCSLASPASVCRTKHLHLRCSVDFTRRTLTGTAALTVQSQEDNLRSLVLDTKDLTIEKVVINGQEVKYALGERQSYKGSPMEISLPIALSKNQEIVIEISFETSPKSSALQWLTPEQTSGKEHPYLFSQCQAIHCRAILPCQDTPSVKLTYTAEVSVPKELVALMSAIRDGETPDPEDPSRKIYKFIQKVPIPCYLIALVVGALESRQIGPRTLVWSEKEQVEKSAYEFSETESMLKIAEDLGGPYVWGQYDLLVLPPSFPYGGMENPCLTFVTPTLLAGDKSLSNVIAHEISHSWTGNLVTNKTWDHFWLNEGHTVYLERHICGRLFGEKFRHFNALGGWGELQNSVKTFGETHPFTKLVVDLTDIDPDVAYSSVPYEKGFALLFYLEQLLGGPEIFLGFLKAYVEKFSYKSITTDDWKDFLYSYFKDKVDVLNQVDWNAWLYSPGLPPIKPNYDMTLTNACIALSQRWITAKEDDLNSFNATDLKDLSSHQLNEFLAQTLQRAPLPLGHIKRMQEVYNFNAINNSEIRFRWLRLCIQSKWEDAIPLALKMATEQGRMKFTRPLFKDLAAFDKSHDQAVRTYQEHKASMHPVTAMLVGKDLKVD

Cytosol aminopeptidase = biological target: T6, Cytosol aminopeptidase (Sus scrofa, UniProt P28839); assay: Inhibition of porcine kidney leucine aminopeptidase using LGG as substrate after 90 mins
T6 sequence (P28839 whole entry): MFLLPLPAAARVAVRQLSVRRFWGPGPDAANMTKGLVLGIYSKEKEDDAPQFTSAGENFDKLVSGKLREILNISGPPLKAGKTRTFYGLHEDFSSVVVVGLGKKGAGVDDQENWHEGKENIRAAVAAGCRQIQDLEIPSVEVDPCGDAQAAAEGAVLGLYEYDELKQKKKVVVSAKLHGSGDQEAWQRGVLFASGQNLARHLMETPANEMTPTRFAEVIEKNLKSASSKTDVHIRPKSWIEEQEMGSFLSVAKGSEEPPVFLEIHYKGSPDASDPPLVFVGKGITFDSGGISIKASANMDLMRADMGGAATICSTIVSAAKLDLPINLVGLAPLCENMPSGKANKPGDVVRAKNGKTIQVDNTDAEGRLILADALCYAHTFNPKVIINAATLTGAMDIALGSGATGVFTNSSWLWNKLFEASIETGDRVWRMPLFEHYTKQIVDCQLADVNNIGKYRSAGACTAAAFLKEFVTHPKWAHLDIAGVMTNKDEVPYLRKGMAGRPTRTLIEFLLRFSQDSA

[9] = biological target: 72 kDa type IV collagenase (Homo sapiens, UniProt P08253); assay: Inhibition of recombinant human MMP2 expressed in Escherichia coli preincubated for 30 mins followed by succinylated gelatin substrate addition measured after 60 mins
SK-OV-3 = assay: Antiproliferative activity against human SKOV3 cells after 48 hrs by MTT assay; assay type: functional, cell-based; settings: SK-OV-3, 48 h
HL-60 [10] = assay: Antiproliferative activity against human HL60 cells after 48 hrs by MTT assay; assay type: functional, cell-based; settings: HL-60, 48 h
[11] = biological target: T7, Cytosol aminopeptidase (Sus scrofa) (UniProt P28839); assay: Potency index, ratio of bestatin IC50 to compound IC50 for porcine kidney leucine aminopeptidase
T7 sequence (whole entry): T6 sequence (P28839 whole entry)

[12] = Selectivity ratio of IC50 for APN (unknown origin) to IC50 for porcine kidney leucine aminopeptidase
HL-60 [13] = assay: Antiproliferative activity against human HL60 cells after 72 hrs by MTT assay; assay type: functional, cell-based; settings: HL-60, 72 h
Aminopeptidase N [14] = biological target: T1, Aminopeptidase N; assay: Inhibition of APN in porcine kidney microsomes using L-leucine-p-nitroanilide as substrate preincubated for 30 mins followed by substrate addition by UV-visible spectrophotometric method
Aminopeptidase N [15] = biological target: T1, Aminopeptidase N; assay: Inhibition of APN in porcine kidney using Ala-betaNA as substrate preincubated for 10 mins followed by substrate addition measured after 30 mins by fluorescence spectrofluorometric method
[16] = Solubility in PBS; assay type: physicochemical
A549 = assay: Antiproliferative activity against human A549 cells over-expressing APN after 48 hrs by MTT assay; assay type: functional, cell-based; settings: A549, 48 h
[17] = Antiproliferative activity against human ES2 cells over-expressing APN after 48 hrs by MTT assay; assay type: functional, cell-based; settings: ES-2, 48 h
MDA-MB-231 = assay: Antiproliferative activity against human MDA-MB-231 cells after 48 hrs by MTT assay; assay type: functional, cell-based; settings: MDA-MB-231, 48 h
Leucine aminopeptidase = biological target: T8, Leucine aminopeptidase (Sus scrofa, UniProt Q29571); assay: Competitive inhibition of LAP in porcine kidney microsomes
T8 sequence (Q29571 whole entry): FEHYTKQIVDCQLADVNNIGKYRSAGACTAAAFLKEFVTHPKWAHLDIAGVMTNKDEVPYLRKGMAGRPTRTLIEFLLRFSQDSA

T3 sequence (Q07075 whole entry): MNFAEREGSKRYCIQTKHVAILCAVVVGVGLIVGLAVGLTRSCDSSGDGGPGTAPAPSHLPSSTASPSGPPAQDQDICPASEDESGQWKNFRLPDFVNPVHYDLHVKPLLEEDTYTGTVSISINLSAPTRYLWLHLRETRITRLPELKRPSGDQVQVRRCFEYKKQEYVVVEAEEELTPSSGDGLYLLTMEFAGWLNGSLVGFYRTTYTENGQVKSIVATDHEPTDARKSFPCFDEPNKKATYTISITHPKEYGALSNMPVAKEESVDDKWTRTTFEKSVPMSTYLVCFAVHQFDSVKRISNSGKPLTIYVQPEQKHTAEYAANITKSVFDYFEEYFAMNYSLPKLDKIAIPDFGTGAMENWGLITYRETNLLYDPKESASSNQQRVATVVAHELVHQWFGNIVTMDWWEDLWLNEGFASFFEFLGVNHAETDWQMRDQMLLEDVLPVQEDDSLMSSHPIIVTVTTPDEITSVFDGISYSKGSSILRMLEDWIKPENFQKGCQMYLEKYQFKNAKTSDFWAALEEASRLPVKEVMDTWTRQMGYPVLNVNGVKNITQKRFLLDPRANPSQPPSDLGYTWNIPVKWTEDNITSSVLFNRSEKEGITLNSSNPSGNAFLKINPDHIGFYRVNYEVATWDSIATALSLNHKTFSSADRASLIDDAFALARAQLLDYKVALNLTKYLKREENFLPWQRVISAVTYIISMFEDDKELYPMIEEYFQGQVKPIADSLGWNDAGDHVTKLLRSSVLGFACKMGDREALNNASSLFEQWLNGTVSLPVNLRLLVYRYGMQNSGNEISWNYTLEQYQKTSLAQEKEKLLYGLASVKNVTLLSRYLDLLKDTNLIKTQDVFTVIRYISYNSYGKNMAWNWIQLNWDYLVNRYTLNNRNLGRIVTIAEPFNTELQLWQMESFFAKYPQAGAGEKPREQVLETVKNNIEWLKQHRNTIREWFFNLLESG
T2 sequence (P15144 whole entry): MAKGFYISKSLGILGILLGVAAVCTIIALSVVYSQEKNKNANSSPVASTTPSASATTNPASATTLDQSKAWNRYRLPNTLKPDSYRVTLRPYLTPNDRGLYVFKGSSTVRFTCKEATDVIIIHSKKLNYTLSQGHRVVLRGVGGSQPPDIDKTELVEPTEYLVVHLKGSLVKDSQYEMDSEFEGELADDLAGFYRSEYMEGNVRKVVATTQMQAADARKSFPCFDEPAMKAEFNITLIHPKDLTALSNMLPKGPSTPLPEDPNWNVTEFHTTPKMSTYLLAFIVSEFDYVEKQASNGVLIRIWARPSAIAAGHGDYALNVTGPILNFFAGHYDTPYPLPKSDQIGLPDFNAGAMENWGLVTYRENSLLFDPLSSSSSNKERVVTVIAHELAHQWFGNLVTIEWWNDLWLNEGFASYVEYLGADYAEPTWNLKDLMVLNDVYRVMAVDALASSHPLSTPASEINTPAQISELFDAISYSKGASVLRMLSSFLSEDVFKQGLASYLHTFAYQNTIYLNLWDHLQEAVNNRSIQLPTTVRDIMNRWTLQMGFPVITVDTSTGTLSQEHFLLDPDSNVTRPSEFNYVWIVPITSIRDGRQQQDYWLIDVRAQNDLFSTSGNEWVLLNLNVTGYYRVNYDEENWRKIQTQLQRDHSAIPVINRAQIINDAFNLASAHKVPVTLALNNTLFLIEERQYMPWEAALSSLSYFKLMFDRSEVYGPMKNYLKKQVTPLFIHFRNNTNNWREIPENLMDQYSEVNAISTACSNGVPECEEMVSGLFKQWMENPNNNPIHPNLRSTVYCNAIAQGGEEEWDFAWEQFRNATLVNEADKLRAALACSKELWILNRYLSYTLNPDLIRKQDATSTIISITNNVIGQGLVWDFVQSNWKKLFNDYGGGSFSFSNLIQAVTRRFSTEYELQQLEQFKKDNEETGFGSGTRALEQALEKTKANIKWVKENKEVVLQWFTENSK
72 kDa type IV collagenase, sequence (P08253 whole entry): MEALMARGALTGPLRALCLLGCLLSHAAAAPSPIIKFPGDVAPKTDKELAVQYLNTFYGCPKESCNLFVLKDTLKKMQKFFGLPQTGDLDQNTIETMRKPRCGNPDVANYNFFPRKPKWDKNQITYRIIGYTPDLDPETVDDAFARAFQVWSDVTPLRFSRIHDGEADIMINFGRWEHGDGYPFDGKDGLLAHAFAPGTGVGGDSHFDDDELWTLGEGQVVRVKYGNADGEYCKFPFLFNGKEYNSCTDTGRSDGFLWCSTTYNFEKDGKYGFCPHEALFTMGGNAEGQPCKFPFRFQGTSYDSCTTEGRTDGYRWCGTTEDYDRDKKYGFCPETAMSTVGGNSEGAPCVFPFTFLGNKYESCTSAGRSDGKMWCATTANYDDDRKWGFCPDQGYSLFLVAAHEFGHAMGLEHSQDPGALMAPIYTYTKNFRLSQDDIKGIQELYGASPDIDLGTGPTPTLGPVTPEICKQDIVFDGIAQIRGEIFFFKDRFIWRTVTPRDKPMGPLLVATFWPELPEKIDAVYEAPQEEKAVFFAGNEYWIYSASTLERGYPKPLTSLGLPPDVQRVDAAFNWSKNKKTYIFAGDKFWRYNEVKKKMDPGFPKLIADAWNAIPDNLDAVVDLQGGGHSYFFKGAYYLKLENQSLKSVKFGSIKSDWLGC

- Ki (Aminopeptidase N [1]): 1000 nM
Compound: NC1COc2ccccc2CC1=O (stereo not drawn)

- Ki (Aminopeptidase N [3]): 0.6 nM
- Ki (Glutamyl aminopeptidase [4]): 0.13 µM
Compound: CC(N)P(=O)(O)C[C@@H](Cc1ccccc1)C(=O)N[C@@](C)(Cc1ccccc1)C(=O)O (stereo partly drawn)

- IC50 [8]: 8 nM
- IC50 (Cytosol aminopeptidase): 30 nM
Compound: CC(C)C[C@H](C(=O)N[C@H](C(=O)O)c1ccccc1)[C@H](O)C(=O)NO

- IC50 [9]: 203 µM
- IC50 (Aminopeptidase N [7]): 12.2 µM
- IC50 (SK-OV-3): 380 nM
- IC50 (HL-60 [10]): 170 nM
Compound: CC(C)C[C@@H](NC(=O)[C@H](Cc1ccccc1)NC(=O)[C@@H](O)CN)C(=O)O

- Ratio IC50 [11]: 300
- IC50 (Cytosol aminopeptidase): 100 nM
- IC50 (Aminopeptidase N [5]): 220 nM
- Ratio IC50 [12]: 2
Compound: CC(C)C[C@H](C(=O)N[C@H](C(=O)OC1CCCC1)c1ccccc1)[C@H](O)C(=O)NO

- IC50 (Aminopeptidase N [5]): 20 nM
Compound: CC1(C)OB(C(N)Cc2ccccc2)OC1(C)C (stereo not drawn)

- IC50 (HL-60 [13]): 1970 nM
- IC50 (Aminopeptidase N [14]): 5 µM
Compound: Cc1ccc(NC(=O)CN2C(=O)CC[C@H](NC(=O)C(N)Cc3ccccc3)C2=O)c(C)c1 (stereo partly drawn)

- solubility [16]: 35.7 mM (≈ 11 mg/mL)
Compound: CC(C)C[C@H](NC(=O)[C@@H](O)[C@H](N)Cc1ccccc1)C(=O)O [UBENIMEX]

- Ki (Aminopeptidase N [3]): 1.5 nM
- Ki (Glutamyl aminopeptidase [4]): 40 µM
Compound: C[C@@](Cc1ccccc1)(NC(=O)[C@H](Cc1ccccc1)CP(=O)(O)C(N)Cc1ccccc1)C(=O)O (stereo partly drawn)

More lines, now with the values behind:

Compound: C(=C1/c2ccccc2-c2c1ccc1ccccc21)/c1cc2c3c(cccc3c1)-c1ccccc1-2
- Ki (Aminopeptidase N [1]): 1630 nM

Compound: CCCCC[C@H](CC(=O)NO)C(=O)N[C@H](C(=O)N1CCC[C@H]1CO)C(C)C [ACTINONIN]
- IC50 (Aminopeptidase N [2]): 400 nM
- Ki (Aminopeptidase N [2]): 170 nM

Compound: N#Cc1cc(Cc2ccc3c(ccc4ccccc43)c2C#N)cc2c1ccc1ccccc12
- Ki (Aminopeptidase N [1]): 2900 nM

Compound: CC(C)CC(N)B1OC(C)(C)C(C)(C)O1 (stereo not drawn)
- IC50 (Aminopeptidase N [5]): 25 nM

Compound: CSCCC(N)CS (stereo not drawn)
- Ki (Glutamyl aminopeptidase [6]): 17.2 µM
- Activity (Mus musculus): >220%
- Ki (Aminopeptidase B): 1000 nM

Compound: CC(C)C[C@@H](NC(=O)[C@H](Cc1ccc(O)cc1)NC(=O)[C@@H](O)CN)C(=O)O
- IC50 (Aminopeptidase N [7]): 2.51 µM

Compound: CC[C@H](C)[C@H](NC(=O)C(S)C(N)CCC(=O)O)C(=O)N[C@@H](CC(=O)O)C(=O)O (stereo partly drawn)
- Ki (Glutamyl aminopeptidase [6]): 0.013 µM
- Ki (Aminopeptidase N [15]): 120 nM

Compound: CC(C)CC(NC(=O)C(O)C(N)Cc1ccccc1)C(=O)NC(CO)C(=O)NCc1ccccc1 (stereo not drawn)
- solubility [16]: 85.2 mM (≈ 41.3 mg/mL)
- IC50 (A549): 36 µM
- IC50 [17]: 12.6 µM
- IC50 (Aminopeptidase N [14]): 7.2 µM
- IC50 (MDA-MB-231): 260 µM

Compound: CC(N)B1OC(C)(C)C(C)(C)O1 (stereo not drawn)
- IC50 (Aminopeptidase N [5]): 40 nM

Compound: CC(C)C[C@@H](N)CS
- Ki (Leucine aminopeptidase): 22 nM

Compound: Cc1ccc(C(=O)NN/C(=N/S(=O)(=O)c2ccc(-n3nc(C(F)(F)F)cc3-c3cccs3)cc2)N2CCCC2)cc1
- Ki (Aminopeptidase N [1]): 1950 nM
